As usually defined, the IC50 is the midpoint of a concentration-inhibition curve.

The subject of test [1] is HepG2. The test can be described thus: Cytotoxicity against human HepG2 cells assessed as surviving fraction ratio at 5 uM after 48 hrs by SRB assay relative to control. Format: functional. (Sulforhodamine B stains cellular protein and so reports cell mass.)
Test [2] deals with HepG2. The test can be described thus: Cytotoxicity against human HepG2 cells assessed as surviving fraction ratio at 12.5 uM after 48 hrs by SRB assay relative to control. The test is classed as functional.
Test [3] deals with HepG2. The test can be described thus: Cytotoxicity against human HepG2 cells assessed as surviving fraction ratio at 25 uM after 48 hrs by SRB assay relative to control. The test is classed as functional.
The subject of test [4] is HepG2. Briefly: Cytotoxicity against human HepG2 cells assessed as surviving fraction ratio at 50 uM after 48 hrs by SRB assay relative to control. The test is classed as functional.
For test [5], the system named is HepG2. The test can be described thus: Cytotoxicity against human HepG2 cells assessed as surviving fraction ratio after 48 hrs by SRB assay relative to control. The test is classed as functional, cell-based. The following applies: Homo sapiens, HepG2, 48 h; read-out: IC50.
Test [6] has as its system HepG2. The test can be described thus: Cytotoxicity against human HepG2 cells assessed as surviving fraction ratio at 5 uM incubated for 2 hrs prior to 8Gy gamma-irradiation measured after 48 hrs by ELISA reader relative to control. The test is classed as functional.
The test system of test [7] is HepG2. Briefly: Cytotoxicity against human HepG2 cells assessed as surviving fraction ratio at 12.5 uM incubated for 2 hrs prior to 8Gy gamma-irradiation measured after 48 hrs by ELISA reader relative to control. The test is classed as functional.
Test [8] relates to HepG2. The test can be described thus: Cytotoxicity against human HepG2 cells assessed as surviving fraction ratio at 25 uM incubated for 2 hrs prior to 8Gy gamma-irradiation measured after 48 hrs by ELISA reader relative to control. The test is classed as functional.
The subject of test [9] is HepG2. The test can be described thus: Cytotoxicity against human HepG2 cells assessed as surviving fraction ratio at 50 uM incubated for 2 hrs prior to 8Gy gamma-irradiation measured after 48 hrs by ELISA reader relative to control. Format: functional.
Test [10] deals with HepG2. The test can be described thus: Cytotoxicity against human HepG2 cells assessed as surviving fraction ratio incubated for 2 hrs prior to 8Gy gamma-irradiation measured after 48 hrs by ELISA reader relative to control. Format: functional, cell-based. The following applies: HepG2, light or radiation study.

Turning to `C/C(=N/NC(=O)c1sc2c(c1N)CCCC2)c1ccc(NS(=O)(=O)c2ccc(C)cc2)cc1`, the Ratio is on record as 0.868 in the test on HepG2 [1]; 0.528 with HepG2 [2]; 0.331 with HepG2 [3]; 0.277 in the test on HepG2 [4]; 0.521 in the test with HepG2 [6]; 0.524 with HepG2 [7]. Besides, the Ratio in the test on HepG2 [8] is reported as 0.329; with HepG2 [9] it was 0.229. The concentration for half-maximal inhibition (IC50) is 25.5 µM with HepG2 [5] and 20 µM in the test on HepG2 [10].

The values are drawn from ChEMBL document CHEMBL3407449, “Synthesis, anticancer and radiosensitizing evaluation of some novel sulfonamide derivatives” (Eur J Med Chem, 2015).
